The IC50 is the concentration that gives 50% inhibition. The Ki is a measure of affinity in units of concentration, obtained from inhibition or displacement.

Experiment [1] has as its target Delta-type opioid receptor (Homo sapiens, UniProt P41143). The class given is cell membranes, HEK293, Membrane. Conditions: hek293. Also: in other assays of this panel Not Active means under 50% inhibition at 10 µM.
Experiment [2] has as its target T1, Adenosine receptor A3 (Homo sapiens, UniProt P0DMS8).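 Also: radioligand binding assay with AB-MECA serving as the labeled ligand; in other assays of this panel Not Active means under 50% inhibition at 10 µM.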
T1 sequence (P0DMS8 whole entry): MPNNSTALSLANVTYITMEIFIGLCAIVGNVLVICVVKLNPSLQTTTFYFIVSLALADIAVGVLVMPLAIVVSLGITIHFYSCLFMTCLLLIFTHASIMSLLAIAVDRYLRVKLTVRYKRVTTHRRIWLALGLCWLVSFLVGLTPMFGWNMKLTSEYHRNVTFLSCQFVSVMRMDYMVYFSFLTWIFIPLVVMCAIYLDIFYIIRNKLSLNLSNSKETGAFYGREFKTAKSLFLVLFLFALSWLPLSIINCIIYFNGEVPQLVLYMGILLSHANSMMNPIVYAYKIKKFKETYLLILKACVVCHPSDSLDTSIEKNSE
The format is cell membranes, CHO-K1, Membrane. To be noted: cho-k1.

The target in experiment [3] is Protein phosphatase 3 catalytic subunit alpha (Homo sapiens, UniProt Q08209). Also on record: species or system Escherichia coli.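 Also: inhibition of calcineurin (PP2B) enzyme activity, measured with DiFMUP as the substrate; in other assays of this panel Not Active means under 50% inhibition at 10 µM.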
A short description of experiment [4]: DRUGMATRIX: ATPase, Na+/K+ enzyme inhibition (substrate: ATP). The format is tissue-based, Sus scrofa, Heart. To be noted: Not Active = under 50% inhibition at 10 µM.
In experiment [5] the target is T2, Alpha-1A adrenergic receptor (Rattus norvegicus, UniProt P43140).
T2 sequence (P43140 whole entry): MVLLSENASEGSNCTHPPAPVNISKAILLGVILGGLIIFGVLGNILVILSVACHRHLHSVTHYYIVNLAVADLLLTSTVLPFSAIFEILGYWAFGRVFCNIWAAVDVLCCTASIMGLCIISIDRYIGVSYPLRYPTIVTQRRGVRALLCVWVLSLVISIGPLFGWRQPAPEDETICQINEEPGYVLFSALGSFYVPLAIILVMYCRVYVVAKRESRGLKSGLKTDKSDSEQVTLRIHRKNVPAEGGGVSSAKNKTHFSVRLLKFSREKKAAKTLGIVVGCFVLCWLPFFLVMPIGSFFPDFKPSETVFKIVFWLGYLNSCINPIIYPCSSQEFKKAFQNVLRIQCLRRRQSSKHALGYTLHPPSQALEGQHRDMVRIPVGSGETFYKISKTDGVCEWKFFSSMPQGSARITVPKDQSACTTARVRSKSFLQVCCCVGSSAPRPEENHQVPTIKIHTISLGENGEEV
The experiment in a line: DRUGMATRIX: Alpha-1A adrenergic receptor radioligand binding (ligand: prazosin). To be noted: Not Active = under 50% inhibition at 10 µM. The format is cell membranes, Wistar, Submaxillary gland, Membrane.

Experiment [6] deals with T3, Receptor-type tyrosine-protein phosphatase C (Homo sapiens, UniProt P08575).
T3 sequence (P08575 whole entry): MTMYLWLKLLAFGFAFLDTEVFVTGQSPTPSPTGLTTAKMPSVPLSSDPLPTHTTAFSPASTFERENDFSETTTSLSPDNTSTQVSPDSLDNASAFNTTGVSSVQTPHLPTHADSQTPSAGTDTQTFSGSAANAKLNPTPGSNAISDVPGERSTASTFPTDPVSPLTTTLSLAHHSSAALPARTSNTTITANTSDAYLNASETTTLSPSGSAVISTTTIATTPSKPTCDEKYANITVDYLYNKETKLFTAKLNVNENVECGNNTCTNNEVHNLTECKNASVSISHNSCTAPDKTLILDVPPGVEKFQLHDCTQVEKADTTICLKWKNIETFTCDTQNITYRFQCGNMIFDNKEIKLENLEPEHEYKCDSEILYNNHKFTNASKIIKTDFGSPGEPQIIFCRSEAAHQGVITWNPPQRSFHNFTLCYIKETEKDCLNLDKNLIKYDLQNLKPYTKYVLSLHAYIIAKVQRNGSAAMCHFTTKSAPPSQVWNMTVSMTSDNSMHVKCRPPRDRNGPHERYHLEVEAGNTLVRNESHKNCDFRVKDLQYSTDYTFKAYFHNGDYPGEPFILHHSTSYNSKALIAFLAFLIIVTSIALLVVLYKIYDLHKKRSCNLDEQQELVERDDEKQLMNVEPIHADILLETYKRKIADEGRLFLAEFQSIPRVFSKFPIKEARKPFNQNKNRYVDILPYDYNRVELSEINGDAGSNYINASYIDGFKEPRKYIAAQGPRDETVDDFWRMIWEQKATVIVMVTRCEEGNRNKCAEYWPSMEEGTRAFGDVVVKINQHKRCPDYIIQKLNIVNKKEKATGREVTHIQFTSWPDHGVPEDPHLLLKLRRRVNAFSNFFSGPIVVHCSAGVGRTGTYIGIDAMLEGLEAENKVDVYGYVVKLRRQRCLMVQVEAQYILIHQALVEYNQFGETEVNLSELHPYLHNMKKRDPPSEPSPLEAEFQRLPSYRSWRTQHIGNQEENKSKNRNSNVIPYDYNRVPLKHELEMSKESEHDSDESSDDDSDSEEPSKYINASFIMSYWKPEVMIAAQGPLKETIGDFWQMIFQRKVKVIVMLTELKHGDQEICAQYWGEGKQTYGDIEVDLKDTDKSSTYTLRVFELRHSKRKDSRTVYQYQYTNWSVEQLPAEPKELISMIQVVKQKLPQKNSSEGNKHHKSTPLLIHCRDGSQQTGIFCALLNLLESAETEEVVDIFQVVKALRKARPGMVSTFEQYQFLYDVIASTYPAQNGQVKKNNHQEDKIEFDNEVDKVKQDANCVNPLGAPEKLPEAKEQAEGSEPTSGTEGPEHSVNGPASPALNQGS
Also on record: species or system Escherichia coli.

Delta-type opioid receptor, sequence (P41143 whole entry): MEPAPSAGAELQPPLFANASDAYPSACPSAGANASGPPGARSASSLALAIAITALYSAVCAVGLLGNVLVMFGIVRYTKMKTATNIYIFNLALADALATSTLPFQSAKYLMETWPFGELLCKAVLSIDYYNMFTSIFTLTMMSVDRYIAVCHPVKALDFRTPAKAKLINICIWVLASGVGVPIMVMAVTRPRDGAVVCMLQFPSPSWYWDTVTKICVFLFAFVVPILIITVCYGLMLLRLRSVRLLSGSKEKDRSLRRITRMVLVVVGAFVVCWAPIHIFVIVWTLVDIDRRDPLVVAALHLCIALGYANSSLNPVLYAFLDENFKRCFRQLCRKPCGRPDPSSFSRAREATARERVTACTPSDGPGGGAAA

Regarding `C[N+](C)(C)C[C@H](O)CC(=O)[O-]` [LEVOCARNITINE], the IC50 entry in experiment [1], in experiment [2], in experiment [3], in experiment [4], in experiment [5] and in experiment [6] was “Not Active” each time. For the same compound, the Ki result in experiment [4] is “Not Active”.

Regarding `C[C@H]1COc2c(N3CCN(C)CC3)c(F)cc3c(=O)c(C(=O)O)cn1c23.C[C@H]1COc2c(N3CCN(C)CC3)c(F)cc3c(=O)c(C(=O)O)cn1c23.O` [LEVOFLOXACIN], the IC50 result in experiment [1], in experiment [2], in experiment [3], in experiment [4], in experiment [5] and in experiment [6] was “Not Active” in each case. For the same compound, the inhibitory constant (Ki) entry in experiment [4] is recorded as “Not Active”.

Regarding `CCn1cc(C(=O)O)c(=O)c2cc(F)c(N3CCNC(C)C3)c(F)c21` (centres undefined) [LOMEFLOXACIN], the IC50 result in experiment [1], in experiment [2], in experiment [3], in experiment [4], in experiment [5] and in experiment [6] was “Not Active” throughout. For the same compound, in experiment [4], the Ki entry is listed as “Not Active”.

In the case of `CN1CCCC(CN2c3ccccc3Sc3ccccc32)C1` (centres undefined) [MEPAZINE], the concentration for half-maximal inhibition (IC50) entry in experiment [1] was “Not Active”; in experiment [2], “Not Active”; in experiment [3], “Not Active”; in experiment [4] it was “Not Active”; in experiment [5] (read-out: IC50), 144 nM; in experiment [6], “Not Active”. The Ki result in experiment [4] was “Not Active”; in experiment [5] (read-out: Ki) it was 58 nM.

Take `Cc1cccc(C)c1NC(=O)C1CCCCN1C` (centres undefined) [MEPIVACAINE]: the IC50 entry in experiment [1], in experiment [2], in experiment [3], in experiment [4], in experiment [5] and in experiment [6] was “Not Active” in each case. Moreover, the inhibitory constant (Ki) entry in experiment [4] is recorded as “Not Active”.

As for `CN(C)C(=N)NC(=N)N` [METFORMIN], the IC50 entry in experiment [1], in experiment [2], in experiment [3], in experiment [4], in experiment [5] and in experiment [6] was “Not Active” each time. Also, in experiment [4], the Ki result is recorded as “Not Active”.

In the case of `CC(C)(C)NCC(O)COc1cccc2c1CC(O)C(O)C2` (centres undefined) [NADOLOL], the IC50 result in experiment [1], in experiment [2], in experiment [3], in experiment [4], in experiment [5] and in experiment [6] was “Not Active” throughout. For the same compound, in experiment [4], the inhibition constant (Ki) entry was “Not Active”.

Turning to `C[C@]12CC[C@H]3[C@@H](CCC4=CC(=O)CC[C@@H]43)[C@@H]1CC[C@@H]2O` [NANDROLONE], the 50% inhibitory concentration (IC50) result in experiment [1], in experiment [2], in experiment [3], in experiment [4], in experiment [5] and in experiment [6] was “Not Active” in each case. Besides, the Ki entry in experiment [4] was “Not Active”.

For the compound `C[C@@H]1C/C=C/C=C/C=C/C=C/[C@H](O[C@@H]2O[C@H](C)[C@@H](O)[C@H](N)[C@@H]2O)C[C@@H]2O[C@](O)(C[C@@H](O)C[C@H]3O[C@@H]3/C=C/C(=O)O1)C[C@H](O)[C@H]2C(=O)O` [NATAMYCIN], the IC50 entry in experiment [1], in experiment [2], in experiment [3], in experiment [4], in experiment [5] and in experiment [6] was “Not Active” throughout. The inhibition constant Ki result in experiment [4] is reported as “Not Active”.

Regarding `CN(C)C(=O)Oc1cccc([N+](C)(C)C)c1.[Br-]` [NEOSTIGMINE BROMIDE], the half-maximal inhibitory concentration (IC50) result in experiment [1], in experiment [2], in experiment [3], in experiment [4], in experiment [5] and in experiment [6] was “Not Active” each time. In experiment [4], the Ki result is recorded as “Not Active”.

On to `NC(=O)c1cccnc1` [NIACINAMIDE], for which the IC50 result in experiment [1], in experiment [2], in experiment [3], in experiment [4], in experiment [5] and in experiment [6] was “Not Active” each time. In addition, in experiment [4], the inhibitory constant (Ki) result is reported as “Not Active”.

As to `CS(=O)(=O)Nc1ccc([N+](=O)[O-])cc1Oc1ccccc1` [NIMESULIDE], the half-inhibitory concentration (IC50) result in experiment [1], in experiment [2], in experiment [3], in experiment [4], in experiment [5] and in experiment [6] was “Not Active” each time. In experiment [4], the Ki result is on record as “Not Active”.

For `CN1C(=O)CN=C(c2ccccc2)c2cc([N+](=O)[O-])ccc21` [NIMETAZEPAM], the IC50 result in experiment [1], in experiment [2], in experiment [3], in experiment [4], in experiment [5] and in experiment [6] was “Not Active” each time. The Ki entry in experiment [4] is “Not Active”.

Regarding `COc1ccc2c(c1OC)C(=O)O[C@@H]2[C@H]1c2c(cc3c(c2OC)OCO3)CCN1C` [NOSCAPINE], the IC50 entry in experiment [1], in experiment [2], in experiment [3], in experiment [4], in experiment [5] and in experiment [6] was “Not Active” in each case. Moreover, the inhibition constant (Ki) result in experiment [4] is given as “Not Active”.

Turning to `C[C@@H]1O[C@@H](O[C@H]2C[C@@H](O)[C@]3(CO)[C@H]4[C@H](O)C[C@]5(C)[C@@H](C6=CC(=O)OC6)CC[C@]5(O)[C@@H]4CC[C@]3(O)C2)[C@H](O)[C@H](O)[C@H]1O` [OUABAIN], the IC50 entry in experiment [1] is “Not Active”; in experiment [2], “Not Active”; in experiment [3], “Not Active”; in experiment [4] (read-out: IC50), 678 nM; in experiment [5] it was “Not Active”; in experiment [6], “Not Active”.

Regarding `NC(=O)N1c2ccccc2CC(=O)c2ccccc21` [OXCARBAZEPINE], the IC50 result in experiment [1], in experiment [2], in experiment [3], in experiment [4], in experiment [5] and in experiment [6] was “Not Active” each time. Moreover, the Ki entry in experiment [4] is “Not Active”.

As for `COc1ccnc(C[S+]([O-])c2nc3ccc(OC(F)F)cc3[nH]2)c1OC` (centres undefined) [PANTOPRAZOLE], the IC50 entry in experiment [1], in experiment [2], in experiment [3], in experiment [4], in experiment [5] and in experiment [6] was “Not Active” throughout. In experiment [4], the inhibition constant Ki result is “Not Active”.

The values are drawn from ChEMBL document CHEMBL1909046, “DrugMatrix in vitro pharmacology data”.
